Some targets named below: GTPase NRas (Homo sapiens, UniProt P01111); GTPase NRas [G12C] (Homo sapiens, UniProt P01111, G12C); GTPase NRas [Q61K] (Homo sapiens, UniProt P01111, Q61K); GTPase NRas [Q61R] (Homo sapiens, UniProt P01111, Q61R).
Common to all, as to assay: Biochemical Assay
A further experiment addresses GTPase KRas [G12C] (Homo sapiens, UniProt P01116, G12C). The text has this:
(§1) The purpose of this biochemical assay is to measure the ability of test compounds to covalently label nucleotide-loaded K-Ras isoforms. […] Analysis of raw data may be carried out using Waters MassLynx MS software, with % bound calculated from the deconvoluted protein peaks for labeled and unlabeled K-Ras.

Another experiment addresses GTPase KRas [G12D] (Homo sapiens, UniProt P01116, G12D).
Source text: as §1

The next experiment concerns the target GTPase KRas [Q61H] (Homo sapiens, UniProt P01116, Q61H).
Source text: as §1

For a further experiment, the target named is GTPase KRas (Homo sapiens, UniProt P01116).
Chain of GTPase KRas (P01116 whole entry): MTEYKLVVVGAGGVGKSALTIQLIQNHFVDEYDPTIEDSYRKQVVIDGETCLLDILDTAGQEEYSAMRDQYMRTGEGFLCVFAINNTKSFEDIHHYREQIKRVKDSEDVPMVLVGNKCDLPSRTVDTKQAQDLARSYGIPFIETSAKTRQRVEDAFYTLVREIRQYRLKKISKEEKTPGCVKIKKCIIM
Source text: as §1

The target in a further experiment is GTPase KRas [G12S] (Homo sapiens, UniProt P01116, G12S).
Chain of GTPase KRas [G12S] (P01116 whole entry G12S): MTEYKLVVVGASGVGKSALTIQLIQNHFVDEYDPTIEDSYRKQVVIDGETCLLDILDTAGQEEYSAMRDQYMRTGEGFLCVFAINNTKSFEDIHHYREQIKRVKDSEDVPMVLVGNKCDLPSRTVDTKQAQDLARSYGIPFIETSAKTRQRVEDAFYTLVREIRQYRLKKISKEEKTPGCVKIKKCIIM
Source text: as §1

Another experiment deals with GTPase KRas [G13C] (Homo sapiens, UniProt P01116, G13C).
Chain of GTPase KRas [G13C] (P01116 whole entry G13C): as the sequence (P01116 whole entry) above, with G13C counted along it
Source text: as §1

Another experiment deals with GTPase KRas [G12V] (Homo sapiens, UniProt P01116, G12V).
Chain of GTPase KRas [G12V] (P01116 whole entry G12V): as the sequence (P01116 whole entry) above, with G12V counted along it
Source text: as §1

Chain of GTPase NRas [Q61K] (P01111 whole entry Q61K): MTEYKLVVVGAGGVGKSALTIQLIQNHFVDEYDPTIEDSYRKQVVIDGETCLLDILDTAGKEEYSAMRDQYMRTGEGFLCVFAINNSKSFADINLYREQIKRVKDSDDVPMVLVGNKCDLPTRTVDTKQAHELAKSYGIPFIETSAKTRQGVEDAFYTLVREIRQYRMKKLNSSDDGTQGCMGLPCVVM
Chain of GTPase NRas (P01111 whole entry): as the sequence (P01111 whole entry Q61K) above, with K61Q counted along it
Chain of GTPase KRas [G12C] (P01116 whole entry G12C, canonical isoform): as the sequence (P01116 whole entry) above, with G12C counted along it
Chain of GTPase NRas [G12C] (P01111 whole entry G12C): as the sequence (P01111 whole entry Q61K) above, with G12C, K61Q counted along it
Chain of GTPase NRas [Q61R] (P01111 whole entry Q61R): as the sequence (P01111 whole entry Q61K) above, with K61R counted along it
Chain of GTPase KRas [Q61H] (P01116 whole entry Q61H): as the sequence (P01116 whole entry) above, with Q61H counted along it
Chain of GTPase KRas [G12D] (P01116 whole entry G12D): as the sequence (P01116 whole entry) above, with G12D counted along it

Take `C=CC(=O)N1CC[C@H](C(=O)N(C)[C@H](C(=O)N[C@H]2Cc3cc(O)cc(c3)-c3ccc4c(c3)c(c(-c3ccncc3)n4C(C)(C)C#N)CC(C)(C)COC(=O)[C@@H]3CCCN(N3)C2=O)C(C)C)C1` [US11566007, Example A86]: the 50% inhibitory concentration (IC50) (usually the concentration that gives 50% inhibition) against GTPase KRas [G12C] was “in the range around 55 nM”; against GTPase KRas [G12D], “in the range around 5500 nM”; against GTPase KRas [Q61H], “in the range around 550 nM”.
Regarding `C=CC(=O)N1CC[C@H](C(=O)N(C)[C@H](C(=O)N[C@H]2Cc3cc(O)cc(c3)-c3ccc4c(c3)c(c(-c3ccccc3[C@H](C)OC)n4CC)CC(C)(C)COC(=O)[C@@H]3CCCN(N3)C2=O)C(C)C)C1` [US11566007, Example A22], the IC50 entry was “in the range around 55 nM” at GTPase KRas [Q61H] and “in the range around 550 nM” at GTPase NRas.
As for `C=CC(=O)N1CC[C@H](C(=O)N(C)[C@H](C(=O)N[C@H]2Cc3cc(O)cc(c3)-c3ccc4c(c3)c(c(-c3cnccc3C)n4CC)CC(C)(C)COC(=O)[C@@H]3CCCN(N3)C2=O)C(C)C)C1` [US11566007, Example A77], at GTPase KRas, the IC50 entry was “in the range around 550 nM”.
On to `C=CC(=O)N1CC[C@H](C(=O)N(C)[C@H](C(=O)N[C@H]2Cc3cc(O)cc(c3)-c3ccc4c(c3)c(c(-c3ccccc3)n4CC)CC(C)(C)COC(=O)[C@@H]3CCCN(N3)C2=O)C(C)C)C1` [US11566007, Example A23], for which the results for the IC50 entry against GTPase KRas [G12C] and on GTPase NRas were “in the range around 550 nM” and > 10000 nM, respectively.
In the case of `CCn1c(-c2ccccc2CCOC)c2c3cc(ccc31)-c1cc(O)cc(c1)C[C@H](NC(=O)[C@H](C(C)C)N(C)C(=O)[C@H]1CCN(C(=O)C#CCN(C)C)C1)C(=O)N1CCC[C@H](N1)C(=O)OCC(C)(C)C2` [US11566007, Example A38], the IC50 is 1000 to 10000 nM at GTPase KRas [G12S] and < 10 nM at GTPase NRas [G12C].
`C=CC(=O)N1CC[C@H](C(=O)N(C)[C@H](C(=O)N[C@H]2Cc3cc(O)cc(c3)-c3ccc4c(c3)c(c(-c3ccccc3COC)n4CC)CC(C)(C)COC(=O)[C@@H]3CCCN(N3)C2=O)C2CCCC2)C1` [US11566007, Example A27]: the IC50 result is “in the range around 5500 nM” on GTPase KRas and “in the range around 55 nM” on GTPase KRas [G12C].
`C=CC(=O)N1CC[C@H](C(=O)N(C)[C@H](C(=O)N[C@H]2Cc3cc(O)cc(c3)-c3ccc4c(c3)c(c(-c3cccnc3COC)n4CC)CC(C)(C)COC(=O)[C@@H]3CCCN(N3)C2=O)C(C)C)C1` [US11566007, Example A16]: the IC50 entry on GTPase KRas [G12C] is “in the range around 55 nM”; against GTPase KRas [Q61H] it was “in the range around 550 nM”; against GTPase NRas [G12C], “in the range around 55 nM”.
With `CCn1c(-c2cccnc2COC)c2c3cc(ccc31)-c1cc(O)cc(c1)C[C@H](NC(=O)[C@H](C(C)C)N(C)C(=O)[C@H]1CCN(C(=O)C#CCN(C)C)C1)C(=O)N1CCC[C@H](N1)C(=O)OCC(C)(C)C2` [US11566007, Example A96], the values for the IC50 at GTPase KRas [G12S], at GTPase KRas [G13C] and at GTPase NRas [G12C] were 100 to 1000 nM, < 10 nM and < 10 nM, respectively.
Regarding `C=CC(=O)N1CC[C@H](C(=O)N(C)[C@H](C(=O)N[C@H]2Cc3cc(O)cc(c3)-c3ccc4c(c3)c(c(-c3ncccc3COC)n4CC)CC(C)(C)COC(=O)[C@@H]3CCCN(N3)C2=O)C(C)C)C1` [US11566007, Example A84], the half-maximal inhibitory concentration (IC50) on GTPase NRas [Q61K] is > 10000 nM.
Regarding `C=CC(=O)N1CC[C@H](C(=O)N(C)[C@H](C(=O)N[C@H]2Cc3cc(O)cc(c3)-c3ccc4c(c3)c(c(-c3cncnc3)n4CC)CC(C)(C)COC(=O)[C@@H]3CCCN(N3)C2=O)C(C)C)C1` [US11566007, Example A61], the 50% inhibitory concentration (IC50) result is “in the range around 550 nM” against GTPase KRas [G12C], “in the range around 5500 nM” at GTPase NRas [Q61K] and > 10000 nM against GTPase NRas [Q61R].
On to `C=CC(=O)N1CC[C@H](C(=O)N(C)[C@H](C(=O)N[C@H]2Cc3cc(O)cc(c3)-c3ccc4c(c3)c(c(-c3cc(F)cnc3COC)n4CC)CC(C)(C)COC(=O)[C@@H]3CCCN(N3)C2=O)C(C)C)C1` [US11566007, Example A82], for which the IC50 result against GTPase KRas [G12V] is “in the range around 550 nM”.
Consider `C=CC(=O)N1CC[C@H](C(=O)N(C)[C@H](C(=O)N[C@H]2Cc3cc(O)cc(c3)-c3ccc4c(c3)c(c(-c3cncc(COC)c3)n4CC)CC(C)(C)COC(=O)[C@@H]3CCCN(N3)C2=O)C(C)C)C1` [US11566007, Example A83], for which the concentration for half-maximal inhibition (IC50) entry was “in the range around 5500 nM” on GTPase KRas, “in the range around 55 nM” on GTPase KRas [G12C] and “in the range around 5500 nM” at GTPase NRas.
As for `C=CC(=O)N1CC[C@H](C(=O)N(C)[C@H](C(=O)N[C@H]2Cc3cc(O)cc(c3)-c3ccc4c(c3)c(c(C3=C(COC)CCCC3)n4CC)CC(C)(C)COC(=O)[C@@H]3CCCN(N3)C2=O)C(C)C)C1` [US11566007, Example A64], the IC50 entry against GTPase KRas [G12C] is “in the range around 55 nM”; against GTPase KRas [G13C], “in the range around 5500 nM”; on GTPase NRas [Q61R], “in the range around 5500 nM”.
As to `C=CC(=O)N1CC[C@H](C(=O)N(C)[C@H](C(=O)N[C@H]2Cc3cc(O)cc(c3)-c3ccc4c(c3)c(c(-c3cccnc3)n4CC)CC(C)(C)COC(=O)[C@@H]3CCCN(N3)C2=O)C(C)C)C1` [US11566007, Example A45], the IC50 entry against GTPase NRas is “in the range around 5500 nM”; against GTPase NRas [Q61R], > 10000 nM.
In the case of `C=CC(=O)N1CC[C@H](C(=O)N(C)[C@H](C(=O)N[C@H]2Cc3cc(O)cc(c3)-c3ccc4c(c3)c(c(-c3nccnc3COC)n4CC)CC(C)(C)COC(=O)[C@@H]3CCCN(N3)C2=O)C(C)C)C1` [US11566007, Example A85], the half-inhibitory concentration (IC50) against GTPase NRas is > 10000 nM.
Turning to `C=CC(=O)N1CC[C@H](C(=O)N(C)[C@H](C(=O)N[C@H]2Cc3cc(O)cc(c3)-c3cc(F)c4c(c3)c(c(-c3ccccc3CCOC)n4CC)CC(C)(C)COC(=O)[C@@H]3CCCN(N3)C2=O)C(C)C)C1` [US11566007, Example A53], the IC50 entry is “in the range around 550 nM” on GTPase KRas [G12C] and > 10000 nM on GTPase NRas [Q61K].
With `C=CC(=O)N1CC[C@H](C(=O)N(C)[C@H](C(=O)N[C@H]2Cc3cc(O)cc(c3)-c3ccc4c(c3)c(c(-c3c(F)cccc3CCOC)n4CC)CC(C)(C)COC(=O)[C@@H]3CCCN(N3)C2=O)C(C)C)C1` [US11566007, Example A25], the half-inhibitory concentration (IC50) result at GTPase KRas [G12C] was “in the range around 550 nM”; against GTPase NRas it was “in the range around 5500 nM”; at GTPase NRas [Q61R], > 10000 nM.

The values above are taken from BindingDB's records for patent US11566007 (Revolution Medicines, 2023).
